Test results from patent US9463337B2, “Multifunctional hair color protector” (GALAXY SURFACTANTS LTD., priority 2013, dated 2016).

Key:
UV absorption of MCBDC = assay type: physicochemical
Excerpt: MCDBC is obtained as practically odorless white paste and has solids content of 30% (Example 2). The product as such has absorbance (E 1%, 1 cm) of 130 at λ max of 306 nm in ethanol.
Its molar extinction coefficient c is 28,000 when measured at same λ max
The white pasty mass that is practically odorless had E1% 1 cm of 130 at λ max 306 nm in EtOH.

[1] = Surface tension of water (surface activity); assay type: physicochemical
[2] = Zeta potential, Malvern Zetasizer Nano; assay type: physicochemical; settings: 1% dispersion
Excerpt: Also the high zeta potential ensures the stability of colloidal dispersions.

[3] = Combing force on Diastron tensile tester after shampoo application; settings: shampoo containing MCBDC (2%), one application, as compared to placebo shampoo
[4] = Sensory evaluation of shampooed hair; settings: shampoo containing 2.0% MCBDC vs base shampoo, panel of 10
Method: Sensory Evaluation of shampooed hair: The subjective evaluation was conducted by the panel of 10. The evaluator scored tresses of the scale of 1 to 2.

[5] = Hair protection against UV induced damage through rinse-off conditioner (combing force); settings: rinse-off conditioner with 2% MCBDC vs placebo conditioner
Method: Double bleached European hair were shampooed with the placebo shampoo of Example 4 and conditioned according to the following protocol. The details of UV chamber and exposure conditions are given below.
Placebo shampoo of Example 4 was applied for 1 minute to European hair and rinsed the tresses with water for one minute 25° C. with controlled finger movements. This was followed by conditioner application for one minute application time, one minute contact time and one and half minute for rinsing off with warm water (40° C.).
Treated hair tresses were exposed to UV radiation with the help of UV lamp for 48 hours. UV exposed hair tresses were then subjected to combing force evaluation on Diastron tensile tester.
Two tresses per treatment were used. The treated tresses were irradiated with UV chamber which is equipped with two tubes emitting UV light in short UV (254 nm) and long UV 315-400 nm) regions. Sankyo Denki G8TS tube with UV output of 2.5 W was used as short UV light source while Sankyo Denki F8T5BLB backlight—blue tube with UV output of 1.4 W was used as long UV light source. Washing and UV exposure was given in the following sequence for 50 h. UV exposed tresses were washed with isopropanol to remove the quaternary followed by combing force measurement on Diastron Tensile Tester (MTT 175).

[6] = Hair color protection (anti-fade) through rinse-off conditioner, Hunter L* a* b*; settings: rinse-off conditioner with MCBDC vs placebo, ten wash/UV cycles, five hours total UV exposure
Method: They were dyed using L'Oreal's Burgundy color as per the protocol described by the dye manufacturer.
Hair coloring (hair dyeing) process is performed as recommended by the marketed product. The color and the developer were mixed in ratio of 1:1 and shampooed hair tresses were treated with the same. The color and developer mixture was applied uniformly to the hair tresses and covered with the aluminum foil for twenty minutes. After this the hair tresses were washed with warm water. […] The ‘Placebo’ and ‘Treated’ hair tresses were exposed to UV radiation, total exposure of five hours through total to washing cycles comprising, shampooing, conditioning, rinsing and UV exposure of 30 mins at time using the equipment described in Example 5. The fading of color of the sets of hair tresses, Control, Placebo and Treated was measured on the Hunter instrument, Labscan XE spectrophotometer. The total color loss (ΔE) is assessed by the change in L* a* b* scale using the equation ΔE=[(ΔL)^2+(Δa)^2+(Δb)^2]^1/2.

[7] = Viscosity boosting in SLES/CAPB shampoo formulation; assay type: physicochemical
Method: A typical placebo shampoo base was prepared with sodium lauryl ether sulphate (12%), cocoamidopropyl betaine (4%), EDTA disodium salt (0.1%), preservative (1%, phenoxy ethanol containing four parabens) and rest deionized water. […] All ingredients were mixed using a Silverson homogenizer thoroughly till a uniform homogeneous mixture was formed.
The base shampoo based on sodium lauryl ether sulphate (2EO) and cocoamidopropyl betaine was prepared as described in Example 4.

[8] = system: Aspergillus niger ATCC 16404; test: Challenge test on aqueous paste (30%); assay type: cell-based; settings: 30% aqueous paste, 25° C.
Method: (§1) Following strains of Gram positive, Gram negative bacteria and yeast and mold were used for the challenge test. Staphylococcus aureus ATCC 653, Escherichia coli ATCC 8739, Pseudomonas aeruginosa ATCC 15442, Candida albicans ATCC 10231, and Aspergillus niger ATCC 16404.
(§2) The test is conducted in the six sterile containers each containing a fix equal amount of test sample. Each container was inoculated with a 1% of standardized Inoculum of the microorganism.
(§3) The initial concentration of the viable microorganism in each test preparation is estimated based on the concentration of microorganism in each of the standardized Inoculum as determined by the plate count method.
(§4) Each container is incubated at 25° C. The aliquot of sample of each container is removed at appropriate intervals of time 0 day, 24 hrs, 48 hrs, and 7 days, 14 days, 21 days and 28 days.

[9] = system: Candida albicans ATCC 10231; test: Challenge test on aqueous paste (30%); assay type: cell-based; settings: 30% aqueous paste, 25° C.
Method: as §1, §2, §3, §4

[10] = system: Escherichia coli ATCC 8739; test: Challenge test on aqueous paste (30%); assay type: cell-based; settings: 30% aqueous paste, 25° C.
Method: as §1, §2, §3, §4

[11] = system: Pseudomonas aeruginosa ATCC 15442; test: Challenge test on aqueous paste (30%); assay type: cell-based; settings: 30% aqueous paste, 25° C.
Method: as §1, §2, §3, §4

[12] = system: Staphylococcus aureus ATCC 653; test: Challenge test on aqueous paste (30%); assay type: cell-based; settings: 30% aqueous paste, 25° C.
Method: as §1, §2, §3, §4

[13] = system: P. aeruginosa, E. coli, S. aureus, Candida albicans and A. niger; test: CTFA challenge test, overall outcome; assay type: cell-based; settings: 30% aqueous paste
Excerpt: It was challenge tested with both Gram negative, Gram positive bacteria and yeast and mold by the standard challenge test protocol recommended by CTFA. The test organisms used were P. aeruginosa, E. coli, S. aureus, Candida albicans and A. niger.
as §1, §2, §3, §4

[14] = Substantivity (deposition) on hair tresses; settings: 0.5% aqueous solution/dispersion on hair tresses

Compound: p-methoxy cinnamidopropyl behenyl dimethyl ammonium chloride [MCBDC]
- molar extinction coefficient (UV absorption of MCBDC; at λ max 306 nm): 28,000
- absorbance (E 1%, 1 cm) (UV absorption of MCBDC; λ max 306 nm in ethanol, product as such, paste with solids content 30%): 130
- Drop in surface tension of water [1]: 35 dynes
- surface tension of water ([1]; at 1.0%, 30° C., reduced from 72 Mn/m): 35 Mn/m
- Zeta potential [2]: +47 mV
- reduction in combing force, dry combing [3]: 19.40%
- reduction in combing force, wet combing [3]: 51.08%
- sensorial evaluation [4]: significant enhancement of sensory attributes
- reduction in combing force after UV exposure, dry combing [5]: about 30%
- reduction in combing force after UV exposure, wet combing [5]: about 30%
- total color loss (ΔE) [6]: Lower ΔE
- change in viscosity of shampoo formulation ([7]; MCBDC 0.5% to 2.0% in base (3000 cps, salt 0.7%), Brookfield spindle No 4, 12 rpm, 25° C.): linear increase in viscosity
- viscosity of shampoo ([7]; shampoo with 2% MCBDC, placebo shampoo 3000 cps): 18,000 cps
- TVC Asp. niger ([8]; 0 hr): 0.78 × 10^5 cfu/gm
- TVC Asp. niger ([8]; 24 hr): 1.16 × 10^1 cfu/gm
- TVC Asp. niger ([8]; 48 hr): 2.03 × 10^2 cfu/gm
- TVC Asp. niger ([8]; 7 days): <10 cfu/gm
- TVC Asp. niger ([8]; 14 days): <10 cfu/gm
- TVC Asp. niger ([8]; 21 days): <10 cfu/gm
- TVC Asp. niger ([8]; 28 days): <10 cfu/gm
- TVC C. albicans ([9]; 0 hr): 0.6 × 10^3 cfu/gm
- TVC C. albicans ([9]; 24 hr): <10 cfu/gm
- TVC C. albicans ([9]; 48 hr): <10 cfu/gm
- TVC C. albicans ([9]; 7 days): <10 cfu/gm
- TVC C. albicans ([9]; 14 days): <10 cfu/gm
- TVC C. albicans ([9]; 21 days): <10 cfu/gm
- TVC C. albicans ([9]; 28 days): <10 cfu/gm
- TVC E. coli ([10]; 0 hr): 0.41 × 10^4 cfu/gm
- TVC E. coli ([10]; 24 hr): <10 cfu/gm
- TVC E. coli ([10]; 48 hr): <10 cfu/gm
- TVC E. coli ([10]; 7 days): <10 cfu/gm
- TVC E. coli ([10]; 14 days): <10 cfu/gm
- TVC E. coli ([10]; 21 days): <10 cfu/gm
- TVC E. coli ([10]; 28 days): <10 cfu/gm
- TVC Ps. Aeruginosa ([11]; 0 hr): 0.43 × 10^5 cfu/gm
- TVC Ps. Aeruginosa ([11]; 24 hr): 4.16 × 10^4 cfu/gm
- TVC Ps. Aeruginosa ([11]; 48 hr): 4.16 × 10^4 cfu/gm
- TVC Ps. Aeruginosa ([11]; 7 days): <10 cfu/gm
- TVC Ps. Aeruginosa ([11]; 14 days): <10 cfu/gm
- TVC Ps. Aeruginosa ([11]; 21 days): <10 cfu/gm
- TVC Ps. Aeruginosa ([11]; 28 days): <10 cfu/gm
- TVC S. aureus ([12]; 0 hr): 3 × 10^6 cfu/gm
- TVC S. aureus ([12]; 24 hr): <10 cfu/gm
- TVC S. aureus ([12]; 48 hr): <10 cfu/gm
- TVC S. aureus ([12]; 7 days): <10 cfu/gm
- TVC S. aureus ([12]; 14 days): <10 cfu/gm
- TVC S. aureus ([12]; 21 days): <10 cfu/gm
- TVC S. aureus ([12]; 28 days): <10 cfu/gm
- preservation outcome of challenge test [13]: self preserving

Compound: COc1cc(O)c(C(=O)c2ccccc2)cc1S(=O)(=O)O [B-4, Benzophenone-4]
- amount deposited on hair (substantivity) [14]: 276 μg/g of hair
